Values quoted from earlier work, collected in patent US20040039052A1, “Urinary incontinence therapy” (priority 1997, published 2004).

Tested on: rats
Settings: cited from earlier work

C=C(C)[C@]12C[C@@H](C)[C@@]34O[C@](Cc5ccccc5)(O[C@@H]1[C@@H]3C=C(COC(=O)Cc1ccc(O)c(OC)c1)C[C@]1(O)C(=O)C(C)=C[C@@H]41)O2 [RTX, resiniferatoxin]
pain upon intravesical administration: pain induced by intravesical administration of RTX
